≈ marks a conversion by molar mass, not a printed value.
What was measured:
[1] = test system: Mycobacterium avium; assay: Antimycobacterial activity against Mycobacterium avium 101 by CLSI method; format: functional
[2] = test system: Mycolicibacterium fortuitum; assay: Antimycobacterial activity against Mycobacterium fortuitum 41 by CLSI method; format: functional
[3] = test system: Mycobacteroides abscessus; assay: Antimycobacterial activity against Mycobacterium abscessus 103 by CLSI method; format: functional
[4] = test system: Mycobacteroides abscessus; assay: Antimycobacterial activity against Mycobacterium abscessus 21 by CLSI method; format: functional
[5] = test system: Mycobacteroides chelonae; assay: Antimycobacterial activity against Mycobacterium chelonae 93 by CLSI method; format: functional
[6] = test system: Mycobacteroides abscessus; assay: Antimycobacterial activity against Mycobacterium abscessus 79 by CLSI method; format: functional
[7] = test system: Mycobacteroides abscessus; assay: Antimycobacterial activity against Mycobacterium abscessus 1 by CLSI method; format: functional
[8] = test system: Mycobacteroides abscessus; assay: Antimycobacterial activity against Mycobacterium massiliense 119 by CLSI method; format: functional, Mycobacterium abscessus subsp. massiliense
[9] = test system: Mycobacterium intracellulare; assay: Antimycobacterial activity against Mycobacterium intracellulare 1956 by CLSI method; format: functional
[10] = test system: Mycolicibacterium peregrinum; assay: Antimycobacterial activity against Mycobacterium peregrinum ATCC 700686 by CLSI method; format: functional
[11] = test system: Mycobacterium tuberculosis; assay: Antimycobacterial activity against Mycobacterium tuberculosis H37Rv MC2 6206 by CLSI method; format: functional
[12] = test system: Mycobacteroides abscessus; assay: Antimycobacterial activity against Mycobacterium abscessus ATCC 19977 by CLSI method; format: functional

| Compound | MIC [1] | MIC [2] | MIC [3] | MIC [4] | MIC [5] | MIC [6] | MIC [7] | MIC [8] | MIC [9] | MIC [10] | MIC [11] | MIC [12] |
| --- | --- | --- | --- | --- | --- | --- | --- | --- | --- | --- | --- | --- |
| CC12CCCC(C(=O)Nc3nc4ccc(C(F)(F)F)cc4s3)(CCC1)C2 | > 8 µg/mL | 0.5 µg/mL (≈ 1.31 µM) | 0.12 µg/mL (≈ 0.314 µM) | 0.25 µg/mL (≈ 0.654 µM) | 0.5 µg/mL (≈ 1.31 µM) | 0.25 µg/mL (≈ 0.654 µM) | 0.5 µg/mL (≈ 1.31 µM) | 0.25 µg/mL (≈ 0.654 µM) | 4 µg/mL (≈ 10.5 µM) | 0.12 µg/mL (≈ 0.314 µM) | – | – |
| CC12CCCC(C(=O)Nc3nc4ccc(OC(F)F)cc4s3)(CCC1)C2 | 8 µg/mL (≈ 21 µM) | 1 µg/mL (≈ 2.63 µM) | – | 0.12 µg/mL (≈ 0.315 µM) | 0.25 µg/mL (≈ 0.657 µM) | 0.12 µg/mL (≈ 0.315 µM) | 0.25 µg/mL (≈ 0.657 µM) | 0.12 µg/mL (≈ 0.315 µM) | 4 µg/mL (≈ 10.5 µM) | 0.12 µg/mL (≈ 0.315 µM) | – | – |
| O=C(Nc1nc2ccc(C(F)(F)F)cc2s1)C1CCCC(C(F)(F)F)C1 (centres undefined) | 16 µg/mL (≈ 40.4 µM) | 2 µg/mL (≈ 5.05 µM) | – | 1 µg/mL (≈ 2.52 µM) | 0.5 µg/mL (≈ 1.26 µM) | 2 µg/mL (≈ 5.05 µM) | 2 µg/mL (≈ 5.05 µM) | 1 µg/mL (≈ 2.52 µM) | 16 µg/mL (≈ 40.4 µM) | 1 µg/mL (≈ 2.52 µM) | – | – |
| CC1CCCC(C(=O)Nc2nc3ccc(C(F)(F)F)cc3s2)C1 (centres undefined) | 16 µg/mL (≈ 46.7 µM) | 2 µg/mL (≈ 5.84 µM) | – | 2 µg/mL (≈ 5.84 µM) | 1 µg/mL (≈ 2.92 µM) | 2 µg/mL (≈ 5.84 µM) | 4 µg/mL (≈ 11.7 µM) | 2 µg/mL (≈ 5.84 µM) | 16 µg/mL (≈ 46.7 µM) | 1 µg/mL (≈ 2.92 µM) | 16 µg/mL (≈ 46.7 µM) | – |
| O=C(Nc1nc2ccc(C(F)(F)F)cc2s1)C1CCCC2(CC2)C1 (centres undefined) | > 64 µg/mL | > 64 µg/mL | – | 2 µg/mL (≈ 5.64 µM) | 1 µg/mL (≈ 2.82 µM) | 1 µg/mL (≈ 2.82 µM) | 8 µg/mL (≈ 22.6 µM) | 2 µg/mL (≈ 5.64 µM) | > 64 µg/mL | 1 µg/mL (≈ 2.82 µM) | – | 4 µg/mL (≈ 11.3 µM) |
| CC1CC(C(=O)Nc2nc3cccc(O)c3s2)CC(C)(C)C1 (centres undefined) | – | 2 µg/mL (≈ 6.28 µM) | 2 µg/mL (≈ 6.28 µM) | 16 µg/mL (≈ 50.2 µM) | 1 µg/mL (≈ 3.14 µM) | 8 µg/mL (≈ 25.1 µM) | – | 2 µg/mL (≈ 6.28 µM) | 4 µg/mL (≈ 12.6 µM) | 0.12 µg/mL (≈ 0.377 µM) | – | – |
| CC1CC(C(=O)Nc2nc3cc(F)cc(F)c3s2)CC(C)(C)C1 (centres undefined) | 8 µg/mL (≈ 23.6 µM) | 0.25 µg/mL (≈ 0.739 µM) | 0.25 µg/mL (≈ 0.739 µM) | 0.25 µg/mL (≈ 0.739 µM) | 0.25 µg/mL (≈ 0.739 µM) | 0.25 µg/mL (≈ 0.739 µM) | 0.5 µg/mL (≈ 1.48 µM) | 0.25 µg/mL (≈ 0.739 µM) | 8 µg/mL (≈ 23.6 µM) | 0.12 µg/mL (≈ 0.355 µM) | – | – |
| CC1(C)CCC(C(=O)Nc2nc3ccc(C(F)(F)F)cc3s2)CC1 | 64 µg/mL (≈ 180 µM) | – | – | – | – | – | – | – | 64 µg/mL (≈ 180 µM) | – | – | > 64 µg/mL |

— ChEMBL document CHEMBL4265897, “Discovery of benzothiazole amides as potent antimycobacterial agents” (Bioorg Med Chem Lett, 2018)
